Active and inactive are the calls of the source. No rule for the calls is given here.
Tested on: Cell-based STAT3 reporter inhibition, counterscreen
Assay: STAT3 reporter signal reduction – cell-based, counter-screen for STAT1 inhibitor project, dose response (AID 1409)

Structure (SMILES)	IC50
CC1(C)Cc2c(ccc3ccccc23)C2=C(C(=O)N3CCCC3)C(=O)C(=O)N21	> 55.7 µM (inactive)
CCN(CC)S(=O)(=O)c1ccc(N2CCOCC2)c(NC(=O)c2cc(-c3ccccn3)nc3ccccc23)c1	9.73 µM
Cc1cc(=O)n(C(NC(=O)c2ccccc2)C(=O)c2ccccc2)cn1 (stereo not drawn)	> 55.7 µM (inactive)
O=C(c1ccco1)N1CCN(c2ncnc3c2[nH]c2ccccc23)CC1	> 55.7 µM (inactive)
O=C(CSc1nc2ccccc2c(=O)[nH]1)c1ccc(O)cc1O	> 55.7 µM (inactive)
COC(=O)CCS(=O)(=O)c1nc(-c2ccccc2)cc(C(F)(F)F)n1	25.5 µM (inactive)
O=C(NNC(=O)c1cccc(S(=O)(=O)N2CCc3ccccc32)c1)c1ccccc1	15.9 µM (inactive)
COc1ccc(CCNc2ncnc3cc(OC)c(OC)cc23)cc1OC	14.6 µM (inactive)
COc1ccc(-c2cc(C(F)(F)F)nc(S(=O)(=O)CCCC(=O)Nc3cccc(O)c3)n2)cc1OC	31 µM (inactive)
COc1ccccc1-c1cc(C(F)(F)F)nc(S(C)(=O)=O)n1	31.8 µM (inactive)
CN1CCN(Cc2nc3ccccc3c(=O)n2Cc2nc(-c3cccc([N+](=O)[O-])c3)cs2)CC1	> 55.7 µM (inactive)
Cc1ccc(-c2csc3ncnc(Sc4nnc(CN5CCCCCC5=O)o4)c23)cc1	12.2 µM (inactive)
COCC(C)NC(=O)CCS(=O)(=O)c1nc(-c2ccc(OC)cc2)cc(C(F)(F)F)n1 (stereo not drawn)	> 55.7 µM (inactive)
Cc1ccc(C2=Nc3c(ccc4ccccc34)C(c3ccncc3)=NN2)cc1	> 55.7 µM (inactive)
CS(=O)(=O)c1nc(-c2ccc(F)cc2)cc(C(F)(F)F)n1	23.8 µM (inactive)
CCOC(=O)CCS(=O)(=O)c1nc(-c2ccccc2)cc(C(F)(F)F)n1	24.2 µM (inactive)
CC1C(=O)NN=C1C(=O)N/N=C\C(Br)=C\c1ccccc1 (stereo not drawn)	23.8 µM (inactive)
CCn1c(O)c(/C=N/NC(=O)c2ccncc2)c(=O)n(CC)c1=S	> 55.7 µM (inactive)
Cc1ccc(-n2nc(C(=O)O)c3ccccc3c2=O)cc1C	> 55.7 µM (inactive)
Cn1nnnc1Sc1ncnc2scc(-c3ccc(F)cc3)c12	22.6 µM (inactive)
O=C(c1ccco1)N1CCN(c2ncnc3c2[nH]c2ccc(Br)cc23)CC1	25.6 µM (inactive)
Cc1cc(NC(=O)CCCS(=O)(=O)c2nc(-c3cccs3)cc(C(F)(F)F)n2)no1	> 55.7 µM (inactive)
CCn1c(=O)c2cc(C(=O)N3CCCC3)sc2c2ccccc21	> 55.7 µM (inactive)
Cc1ccc2[nH]c3c(N4CCN(Cc5ccccc5)CC4)ncnc3c2c1	16.2 µM (inactive)
CCOC(=O)N1CCN(C(=O)c2ccc(-n3c(=S)[nH]c4ccccc4c3=O)cc2)CC1	> 55.7 µM (inactive)
CCOc1cc(-c2noc(N)c2C#N)cc(OCC)c1OCC	> 55.7 µM (inactive)
O=C(c1ccc(Cl)cc1)N1CCN(c2ccnc3cc(Cl)ccc23)CC1	22 µM (inactive)

Structure (SMILES)	IC50
O=C(c1ccc2c(c1)N(Cc1ccccc1)C(=O)c1ccccc1S2)N1CCCC1	> 55.7 µM (inactive)
COc1ccc(CNc2ncnc3cc(Cl)ccc23)cc1OC	> 18.6 µM (inactive)
COc1ccc(-n2c(SCc3cccnc3)nc3c(c2=O)SCC3)cc1OC	> 55.7 µM (inactive)
CS(=O)(=O)c1nc(-c2ccco2)cc(C(F)(F)F)n1	38 µM (inactive)
C#Cc1ccc([C@H]2C=C(C(=O)OCC=C)O[C@@H](OCC)[C@@H]2CCCO)cc1	> 55.7 µM (inactive)
COc1ccccc1-c1cc(C(F)(F)F)nc(S(=O)(=O)CCCC(=O)Nc2cccnc2Cl)n1	34.6 µM (inactive)
COc1ccc(-c2cc(C(F)(F)F)nc(S(=O)(=O)CCCC(=O)Nc3cc(C)on3)n2)cc1OC	24.8 µM (inactive)
CCOC(=O)C(=CNc1cc(C)nn1-c1ccccc1)C(=O)OCC	> 55.7 µM (inactive)
CN1CCN(Cc2nc3ccccc3c(=O)n2Cc2nc(-c3ccccc3F)cs2)CC1	> 55.7 µM (inactive)
CCOC(=O)c1c(C)nc2sc3c(=O)n(-c4ccc(OC)cc4)nnc3c2c1-c1ccc(OC)cc1	> 55.7 µM (inactive)
COc1ccccc1CNc1ncnc2cc(Cl)ccc12	> 55.7 µM (inactive)
O=c1cc(CSc2nc3ccccc3c(=O)[nH]2)c2ccc(O)cc2o1	> 55.7 µM (inactive)
Cc1ccccc1-c1noc(N)c1C#N	> 55.7 µM (inactive)
COc1ccccc1-c1cc(C(F)(F)F)nc(S(=O)(=O)CCCC(=O)N2CCOCC2)n1	30.9 µM (inactive)
COc1ccc(-c2cc(C(F)(F)F)nc(S(=O)(=O)CCCC(=O)Nc3cccnc3Cl)n2)cc1OC	32.6 µM (inactive)
Cc1cccc(/C=C(\c2nc3ccccc3[nH]2)S(=O)(=O)c2ccccc2)c1	20.3 µM (inactive)
CN1CCN(Cc2nc3ccccc3c(=O)n2Cc2nc(-c3ccc4ccccc4c3)cs2)CC1	49.2 µM (inactive)
CCOC(=O)N1CCN(C(=O)c2ccc(CSc3ccc(Cl)cc3)cc2)CC1	16.5 µM (inactive)
Cc1ccc(C(=O)Nc2cccc(N(C)S(C)(=O)=O)c2)cc1S(=O)(=O)Nc1ccccc1	> 55.7 µM (inactive)
Cc1ccccc1NC(=O)C(=Cc1ccc(C(=O)O)cc1)C(=O)Nc1ccccc1C	> 55.7 µM (inactive)
COc1ccc(CCNC(=O)Cn2c(=O)n(-c3ccc(F)cc3)c(=O)c3sccc32)cc1OC	> 55.7 µM (inactive)
CS(=O)(=O)c1nc(-c2ccccc2)cc(C(F)(F)F)n1	20.8 µM (inactive)
Cc1ccc(S(=O)(=O)N2CCN(C(C(=O)Nc3ccc(F)cc3)c3ccccc3)CC2)cc1 (stereo not drawn)	> 55.7 µM (inactive)
Cn1c(C(=O)N2CCN(c3ccc([N+](=O)[O-])cc3)CC2)cc2c(=O)[nH]c3ccccc3c21	28.7 µM (inactive)
COC(=O)C1=CN(Cc2ccc(OC)c(OC)c2)C=C(C(=O)OC)C1c1cccs1	> 55.7 µM (inactive)
CCOC(=O)N1CCN(C(=O)/C=C/c2c(C)nn(-c3ccc(F)cc3)c2Cl)CC1	37.1 µM (inactive)

— PubChem BioAssay AID1409 (The Scripps Research Institute Molecular Screening Center, 2008)
